# Values of other authors in patent publication US10500232B2, “Small molecule cellular reprogramming to generate neuronal cells” (The J. David Gladstone Institutes, a testamentary trust …, priority 2013, dated 2019).
# Biological target: mGlu4 (Homo sapiens, UniProt Q14833)
# Conditions: read-out: EC50 against mGlu4; cited from earlier work
# Sequence of mGlu4 (Q14833 33-912): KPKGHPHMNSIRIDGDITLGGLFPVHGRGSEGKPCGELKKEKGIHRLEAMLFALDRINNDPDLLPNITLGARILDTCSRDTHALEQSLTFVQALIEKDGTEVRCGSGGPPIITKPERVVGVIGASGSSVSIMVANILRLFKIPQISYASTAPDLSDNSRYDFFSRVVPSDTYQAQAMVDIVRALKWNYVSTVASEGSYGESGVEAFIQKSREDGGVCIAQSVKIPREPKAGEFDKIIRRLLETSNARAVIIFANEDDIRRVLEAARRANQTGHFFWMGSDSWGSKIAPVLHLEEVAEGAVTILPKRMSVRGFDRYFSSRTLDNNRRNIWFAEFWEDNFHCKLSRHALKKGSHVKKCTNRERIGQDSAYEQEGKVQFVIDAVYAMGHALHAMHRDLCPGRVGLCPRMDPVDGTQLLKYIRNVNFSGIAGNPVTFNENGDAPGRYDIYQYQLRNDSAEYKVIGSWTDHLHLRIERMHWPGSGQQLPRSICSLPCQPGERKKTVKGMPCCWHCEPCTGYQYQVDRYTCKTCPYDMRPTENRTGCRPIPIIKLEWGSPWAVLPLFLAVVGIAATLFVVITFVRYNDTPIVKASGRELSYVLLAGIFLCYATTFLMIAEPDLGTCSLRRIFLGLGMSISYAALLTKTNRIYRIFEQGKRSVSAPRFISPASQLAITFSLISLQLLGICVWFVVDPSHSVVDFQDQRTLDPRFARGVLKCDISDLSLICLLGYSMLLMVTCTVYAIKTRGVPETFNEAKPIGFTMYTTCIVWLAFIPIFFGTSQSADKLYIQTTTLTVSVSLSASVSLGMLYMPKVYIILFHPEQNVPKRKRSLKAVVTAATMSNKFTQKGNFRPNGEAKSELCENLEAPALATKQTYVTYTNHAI
smiles,measurement,value
"COc1cc(NC(=O)c2ccccn2)ccc1Cl [ML128, N-(4-chloro-3-methoxyphenyl)pyridine-2-carboxamide]",EC50,0.2 to 2.3 µM
